One assay concerns Male Sprague-Dawley rats. Kind of assay: Cocaine self administration and reinstatement model (cocaine induced relapse). As to conditions: for Lever presses (Avg ± Std. error): significantly different from Vehicle, p < 0.05. The assay is classed as in vivo, rat. On the procedure:
Intravenous cocaine (0.35 mg/kg/inj) was used in an operant self administration and reinstatement model in rats. In this model, rats addicted to cocaine repeatedly pressed a lever to obtain an intravenous dose (iv) of cocaine. When cocaine was removed, rats stopped pressing the lever. However, rats resumed lever pressing for cocaine (reinstatement) if subjected to a small intraperitoneal (ip) dose (10 mg/kg) of cocaine that normally has no effect in naïve animals. This is a valid animal model of relapse in cocaine addicted humans, and tests the ability of compounds of Formula I to block cocaine craving and relapse.
Male Sprague-Dawley rats with jugular vein catheterization were used. Rats were presented with a choice of two levers in the test/training chamber. […] The following day the reinforcer was switched to FR1 lever pressing for cocaine (0.35 mg/kg/inj, delivered in 0.27 sec). […] Daily training sessions for each group lasted 2 hours, or until a subject earned 200 drug infusions, whichever came first. The subjects remained in drug self-administration training mode until acquisition criterion was met (average presses on the active lever varied by <10% over 3 consecutive training days). This typically takes 10-14 days.
For extinction and reinstatement experiments, rats were required to display stable responding (variability not higher than 15% in 2 consecutive sessions) on the FR1 schedule of reinforcement. […] When average responding across three consecutive extinction sessions fell to 15% of responding during maintenance, subjects were tested for reinstatement. In cocaine-experienced animals, reinstatement was primed with a non-contingent injection of cocaine (10 mg/kg ip) immediately before the reinstatement session. In order to increase statistical power and therefore decrease animal usage, a second extinction period was initiated 3-4 days after the first, which allowed for additional within-subjects comparisons. Experiments used a between-session-training and testing method in which animals were trained to self administer drug. Their behavior was then extinguished and then reinstatement was primed on different days.
Animals were trained to self administer cocaine (0.35 mg/kg/inj) until they reached stable responding. They were then trained in the same chambers but cocaine was no longer available.

Another assay has as its system Wistar-derived male rats. Description: Nicotine self-administration. The assay is classed as in vivo, rat. As to conditions: increasing doses (7.5, 10, 15 mg/kg i.p.) 30 minutes prior to session.

Experimental findings from patent publication US8158810B2 (Gilead Sciences, Inc., priority 2006, dated 2012) are described below.

Experimental for Wistar-derived male rats: Wistar-derived male rats (250-300 g) were housed in groups of two and maintained in a temperature-controlled environment on a 12 hour: 12 hour light cycle (0600 h on-1800 h off), upon arrival in the laboratory. Animals were given free access to food and water during a one-week habituation period to the laboratory. […] Animals were handled daily for several days to desensitize them to handling stress before experimental testing. The sample sizes (n=8) provided reliable estimates of drug effects.
Mecamylamine was dissolved in 0.09% isotonic saline and administered at a volume of 1 ml/kg.
Food training and nicotine self-administration took place in 8 standard Coulbourn operant chambers. Each chamber was housed in a sound-attenuated box. Operant chambers were equipped with two levers, mounted 2 cm above the floor, and a cue light mounted 2 cm above the right lever on the back wall of the chamber. For food training, a food hopper was located 2-cm to the left/right of either lever, in the middle of the back wall. Intravenous infusions were delivered in a volume of 0.1 ml over a 1 second interval via an infusion pump (Razel, Conn.) housed outside of the sound attenuated chamber.
Initially, rats were restricted to 15 grams of food daily (approximately 85% of their free-feeding body weight). […]

In the case of `CS(=O)(=O)Nc1ccc(-c2coc3cc(OCc4cccc(C(=O)O)c4)ccc3c2=O)cc1` [Cmpd A, 3-[(3-{4-[(methylsulfonyl)amino]phenyl}-4-oxochromen-7-yloxy)methyl]-benzoic acid], the “Lever presses (Avg ± Std. error)” value in the assay on Male Sprague-Dawley rats (7.5 mg/kg prior to cocaine priming dose (10 mg/kg), N = 9) is 24.94 ± 7.92; in the assay with Male Sprague-Dawley rats (10 mg/kg prior to cocaine priming (10 mg/kg) dose, N = 6) it was 19.83 ± 11.30. The “lever presses responding after priming injection of cocaine” value with Male Sprague-Dawley rats (7.5 and 10 mg/kg prior to the priming injection of cocaine (10 mg/kg)) is given as “did not show an increase in their lever presses responding”. Moreover, the relapse for cocaine entry in the assay on Male Sprague-Dawley rats (ip injections, rats) is “dose dependently blocked relapse for cocaine”. The “number of bar presses (number of infusions) for nicotine administration” value in the assay on Wistar-derived male rats is “reduced the number of bar presses”.
